Measurements from patent publication US12673918B2, “Small molecule RPN13 inhibitors with antitumor properties” (The Johns Hopkins University, priority 2019, dated 2026).
Like-named read-outs stand apart in the source and are kept apart here.

Key:
[1] = test system: SSC90; experiment: MTT cytotoxicity assay, SSC90
[2] = test system: MM.1S; experiment: MTT cytotoxicity assay, MM.1S; format: cell-based; settings: Homo sapiens, MM1.S, read-out: IC50 MM.1S
Method: (§1) The cytotoxic efficacy of selected compounds was assessed against multiple myeloma (MM) cell lines, as this is a validated clinical target for the licensed proteasome inhibitors.
(§2) Cell lines and cytotoxicity assays: All cell lines were obtained from the American Type Culture Collection (ATCC) and cultured in the specified medium supplemented with 10% fetal bovine serum, 100 IU/mL penicillin, and 100 μg/mL streptomycin at 37° C. in a humidified 5% CO2/95% air incubator. […] To assess drug cytotoxicity, cells were seeded at 2,500 cells/well (10,000 cells/well for MM lines) in 100 μL medium in 96-well plate and after 24 treated with compounds for 72 h, incubated according to the manufacturer's protocol with the Thiazolyl Blue Tetrazolium Bromide (Sigma, M2128) and A570 measured using a Benchmark Plus microplate spectrophotometer (BIO-RAD). IC50 data was analyzed by Graphpad Prism software.

[3] = test system: HeLa; settings: human
[4] = test system: HFF (Human Foreskin Fibroblast); experiment: MTT cytotoxicity assay, HFF normal cells; format: cell-based; settings: read-out: IC50 HFF
Method: as §2

[5] = test system: A2780; settings: human
[6] = test system: ID8 (murine); experiment: MTT cytotoxicity assay, ID8; format: cell-based; settings: Mus musculus, 48 h, read-out: IC50 ID8 (murine)
[7] = test system: RPMI8226-V10R; experiment: MTT cytotoxicity assay, RPMI8226-V10R; format: cell-based; settings: read-out: IC50 RPMI8226-V10R
Method: as §1, §2

[8] = test system: PC3; experiment: MTT cytotoxicity assay, PC3; settings: Homo sapiens
[9] = test system: ANBL6; experiment: MTT cytotoxicity assay, ANBL6; format: cell-based; settings: Homo sapiens, read-out: IC50 ANBL6
Method: as §1, §2

[10] = test system: HCT116 ARID1A^-/-; experiment: MTT cytotoxicity assay, HCT116 ARID1A knockout; format: cell-based, human; settings: for IC50: Homo sapiens, read-out: IC50 HCT116 ARID1A^-/-
Description: Loss of ARID1A function is a common driver of ovarian and some other cancer types, and it confers vulnerability to inhibition of GSH (36).

[11] = in vitro; settings: human
Method: (§3) Cell lines and cytotoxicity assays: All cell lines were obtained from the American Type Culture Collection (ATCC) and cultured in the specified medium supplemented with 10% fetal bovine serum, 100 IU/mL penicillin, and 100 μg/mL streptomycin at 37° C. in a humidified 5% CO2/95% air incubator. […] To assess drug cytotoxicity, cells were seeded at 2,500 cells/well (10,000 cells/well for MM lines) in 100 μL medium in 96-well plate and after 24 treated with compounds for 72 h, incubated according to the manufacturer's protocol with the Thiazolyl Blue Tetrazolium Bromide (Sigma, M2128) and A570 measured using a Benchmark Plus microplate spectrophotometer (BIO-RAD). IC50 data was analyzed by Graphpad Prism software. In the chirality studies the cells were treated with compounds for 48 h, and the cells were incubated and measured via the preceeding protocols.

[12] = test system: RPMI8226; experiment: MTT cytotoxicity assay, RPMI8226; format: cell-based; settings: Homo sapiens, read-out: IC50 RPMI8226
Method: as §1, §2

[13] = test system: MCF7; experiment: MTT cytotoxicity assay, MCF7; settings: read-out: cytotoxicity IC50 MCF7, Tables 3A/4B/4C
[14] = test system: PEO4; experiment: cells; settings: PEO4, read-out: cytotoxicity IC50 PEO4
Method: as §3

[15] = test system: T22; experiment: MTT cytotoxicity assay, T22; settings: read-out: cytotoxicity IC50 T22, Tables 3A/4B/4C, BRCA2 + VE
[16] = test system: VU93; experiment: MTT cytotoxicity assay, VU93; settings: read-out: cytotoxicity IC50 VU93, Tables 3A/4B/4C
[17] = MTT cytotoxicity assay, RPE1; settings: human
Method: as §3

[18] = test system: intracellular ATP; experiment: Luciferase-based ATP measurement, ES2 cells; format: cell-based, human; settings: luciferase expressing ES2 cells, 4 hr, sublethal doses
Method: Briefly, firefly luciferase expressing ES2 cells were treated for 4 hr with compounds at sublethal doses and the bioluminescence was measured in intact cells using luminometer by adding luciferin. […] This is associated with enhanced glycolysis while bortezomib suppresses oxidative phosphorylation (OXPHOS) (66).
ATP measurement assay: To measure ATP levels in cells, luciferase based bioluminescence assay was performed. Briefly cells stably expressing firefly luciferase plated in a 6 well plate (250,000 cells/well) in growth medium. After 24 h incubation, cells were treated with compounds at indicated concentrations for the period of 4 h and the bioluminescence was measured by IVIS 200 imager in intact cells by adding luciferin substrate to the growth medium. Cell viability was assessed in parallel using an MTT assay.

[19] = Repeat dose MTD in healthy female CD1 mice; settings: mouse, in vivo, 3 repeated doses every third day
Description: The starting doses were based on previous studies with RA183. Doses were escalated incrementally in steps of not more than 50%. When either of these endpoints was met, dose escalation was halted and the prior dose was set as the MTD.

[20] = test system: UWB1.289; experiment: MTT cytotoxicity assay, UWB1.289; settings: UWB1289, read-out: cytotoxicity IC50 UWB1.289
Method: as §3

[21] = test system: proteasome (4UbFL reporter); experiment: 4UbFL reporter, ES2 cells stably expressing 4UbFL; format: cell-based, human; settings: ES2 stably expressing 4UbFL, 4 h
Description: FIG. 14B illustrates fold increase in bioluminiscence of ES2 cells stably expressing 4UbFL at 4 hrs post-treatment of compounds, as measured by luminometer.
Next examined was the effect of compounds on proteasome function using a DNA construct that expresses a reporter gene comprising firefly luciferase fused to four molecules of ubiquitin (4UbFL) at its amino terminus (41). The 4UbFL is rapidly degraded by active proteasomes, resulting in a low level of enzymic activity and bioluminescence. Upon proteasome inhibition, increased 4UbFL activity can be measured by luminescence assay using luciferin as a substrate as the protein is stabilized.

[22] = test system: RPE1-ATMKO; experiment: MTT cytotoxicity assay, RPE1-ATMKO; settings: read-out: cytotoxicity IC50 RPE1-ATMKO
Method: as §3

[23] = test system: proteasome (4UbFL reporter); experiment: 4UbFL reporter in leg muscle of CD1 mice; format: in vivo
Method: Pilot safety studies were performed in CD1 mice (n=3/dose group of healthy female mice aged 6-8 weeks) with increasing single doses delivered i.p. and the NOAEL (no-observed-adverse-effect level) was selected for further animal studies. […] Bortezomib was dissolved in a minimal amount of DMSO and further diluted with saline before injection in a dose finding study. […] To measure on-target inhibition of proteasome activity in mice, a leg muscle of CD-1 mice was transduced with the 4UbFL reporter construct. […] Briefly, mouse leg muscle was electroporated with 4UbFL plasmid and basal bioluminescence was measured after 24 hr using IVIS200 imager after injecting luciferin substrate. Mice were randomized (n=5/group) and treated with compounds in PEG400: Cremophor: Tween40 combination or vehicle alone as shown in Table 5 with one dose delivered by intraperitoneal injection. The mice were again imaged at 4 h, 24 h, 48 h post treatment.

[24] = test system: OV2008; experiment: MTT cytotoxicity assay, OV2008; settings: read-out: cytotoxicity IC50 OV2008
Method: as §3

[25] = read-out: cytotoxicity IC50 SSC90, Tables 3A/4B/4C, MTT assay
[26] = Table 3, MTT, 48 hr, normal Human Foreskin Fibroblast
[27] = PC-3, read-out: cytotoxicity IC50 PC3
[28] = HCT-116, Table 3, MTT, 48 hr, Colon

Row | SMILES | IC50 ([2]; 48 h) | IC50 [3] | IC50 ([4]; Homo sapiens, Fibroblast, 48 h) | IC50 [5] | IC50 [6] | IC50 ([7]; 48 h) | IC50 ([8]; PC-3, 48 h, read-out: IC50 PC3) | IC50 ([9]; ANBL-6, 48 h) | IC50 ([10]; HCT-116, 48 h) | IC50 [11] | IC50 ([12]; RPMI-8226, 48 h) | IC50 [13] | IC50 [1, 25] | IC50 [14] | IC50 [4, 26] | IC50 [15] | IC50 [16] | IC50 [8, 27] | IC50 [10, 28] | ATP-dependent bioluminescence (intracellular ATP levels) [18] | other results
1 | O=C(CCl)N[C@@H](Cc1ccccc1)C(=O)N1C/C(=C\c2ccc([N+](=O)[O-])cc2)C(=O)/C(=C/c2ccc([N+](=O)[O-])cc2)C1 [RA375] | 11 nM | 13 nM | > 1000 nM | 37 nM | 44 nM | 6 nM | 27 nM | 12 nM | 20 nM | 41 nM | 9 nM | – | – | – | – | – | – | – | – | – | IC50 ([1]; read-out: IC50 SSC90): 24 nM; fold less sensitive: parental HCT116 vs isogenic ARID1A knockout [10]: 4 fold
2 | N[C@@H](Cc1ccccc1)C(=O)N1C/C(=C\c2ccc(Cl)c(Cl)c2)C(=O)/C(=C/c2ccc(Cl)c(Cl)c2)C1 [RA190, reference compound] | – | – | – | – | – | – | – | – | – | – | – | 750 nM | 625 nM | 168 nM | > 1000 nM | 16.3 µM | 625 nM | 162 nM | 164 nM | – | IC50 ([2]; Table 3, MTT, 48 hr, Multiple Myeloma): 72 nM; IC50 ([7]; Table 3, MTT, 48 hr, Multiple Myeloma, bortezomib resistant): 47 nM; IC50 ([9]; ANBL-6, Table 3, MTT, 48 hr, Multiple Myeloma): 67 nM; IC50 ([12]; RPMI-8226, Table 3, MTT, 48 hr, Multiple Myeloma): 45 nM
3 | CC(C)C[C@H](NC(=O)[C@H](Cc1ccccc1)NC(=O)c1cnccn1)B(O)O [Bortezomib, bortezomib, reference compound] | – | – | – | – | – | – | – | – | – | – | – | – | 15 nM | 31 nM | > 100 nM | – | – | – | 2.8 nM | not evident | IC50 ([17]; RPE1 cells): 3.5 nM
4 | CC1/C(=C\c2ccc([N+](=O)[O-])cc2)C(=O)/C(=C/c2ccc([N+](=O)[O-])cc2)CN1C(=O)[C@H](Cc1ccccc1)NC(=O)CCl (stereo partly drawn) [RA414] | – | – | – | – | – | – | – | – | – | – | – | 75 nM | < 20 nM | 30 nM | – | – | 40 nM | 12 nM | – | – | MTD [19]: 10 mg/kg; IC50 [20]: < 20 nM; 4UbFL bioluminescence [21]: increased bioluminescence in a dose dependent manner; IC50 [22]: < 40 nM; duration of on-target activity (4UbFL, leg muscle) ([23]; CD1 mice, 3 mg/kg i.p., PEG system): on-target activity over 72 hr similar to bortezomib; IC50 [17]: < 40 nM
5 | N[C@@H](Cc1ccccc1)C(=O)N1C/C(=C\c2ccc([N+](=O)[O-])cc2)C(=O)/C(=C/c2ccc([N+](=O)[O-])cc2)C1 [RA183, reference compound] | 46 nM | – | > 1000 nM | – | 198 nM | 139 nM | 133 nM | 58 nM | 155 nM | – | 88 nM | – | – | – | – | – | – | 133 nM | – | reduced bioluminescence | IC50 [24]: 80 nM
6 | C[C@H]1/C(=C\c2ccc([N+](=O)[O-])cc2)C(=O)/C(=C/c2ccc([N+](=O)[O-])cc2)CN1C(=O)[C@@H](N)Cc1ccccc1 | – | 23 nM | – | 20 nM | – | – | – | – | – | 41 nM | – | – | – | 41 nM | – | 1.36 µM | – | – | – | reduced bioluminescence | MTD [19]: 20 mg/kg; IC50 [20]: 43.9 nM; 4UbFL bioluminescence [21]: increased bioluminescence in a dose dependent manner; IC50 [22]: 24 nM; fold increased bioluminescence (4UbFL, leg muscle) ([23]; CD1 mice, 30 mg/kg i.p., PEG400: Cremophor: Tween40, at 4 h and 24 h): 4-6 fold; fold increased bioluminescence (4UbFL, leg muscle) ([23]; mouse, in vivo, ip, 30 mg/kg): 14-22 fold; IC50 [24]: 40 nM
